Assay results from the NIST ThermoML archive (doi:10.1021/acs.jced.8b01048).
± gives the expanded uncertainty stated by the source.

Tests used:
[1] = xn = mol fraction of the nth substance listed; details: 100 kPa, Liquid, Vibrating tube method
[2] = 100 kPa, Liquid, Vibrating tube method

CC(=O)[O-].CCn1cc[n+](C)c1 [1-ethyl-3-methylimidazolium acetate] + O
[1], x2 = 0.018
Details | mass density [kg/m3]
293.15 K | 1101.7 ± 0.5
303.15 K | 1095.6 ± 0.5
313.15 K | 1089.6 ± 0.5
323.15 K | 1083.7 ± 0.5
333.15 K | 1077.7 ± 0.5
343.15 K | 1071.8 ± 0.5
353.15 K | 1065.9 ± 0.5
363.15 K | 1060 ± 0.5
373.15 K | 1054.2 ± 0.5

CC(=O)[O-].C[N+](C)(C)CCO [choline acetate] + C[S+](C)[O-]
mass density [kg/m3], [1]
Details | 293.15 K | 303.15 K | 313.15 K | 323.15 K | 333.15 K | 343.15 K | 353.15 K | 363.15 K | 373.15 K
x2 = 0.503 | – | – | – | – | – | 1067.3 ± 0.5 | 1060.8 ± 0.5 | 1054.6 ± 0.5 | 1048.4 ± 0.5
x2 = 0.598 | – | – | – | – | 1073.6 ± 0.5 | 1066.7 ± 0.5 | 1059.8 ± 0.5 | 1053 ± 0.5 | 1046.4 ± 0.5
x2 = 0.701 | – | – | – | 1079.6 ± 0.5 | 1072.3 ± 0.5 | 1065 ± 0.5 | 1057.6 ± 0.5 | 1050.4 ± 0.5 | 1043.3 ± 0.5
x2 = 0.799 | – | – | 1086 ± 0.5 | 1077.9 ± 0.5 | 1070 ± 0.5 | 1061.8 ± 0.5 | 1053.8 ± 0.5 | 1045.6 ± 0.5 | 1037.6 ± 0.5
x2 = 0.899 | 1102.7 ± 0.5 | 1093.9 ± 0.5 | 1085.1 ± 0.5 | 1076.3 ± 0.5 | 1067.4 ± 0.5 | 1058.6 ± 0.5 | 1049.8 ± 0.5 | 1040.9 ± 0.5 | 1032.3 ± 0.5

CC(=O)[O-].CCn1cc[n+](C)c1 [1-ethyl-3-methylimidazolium acetate]
[2]
Details | mass density [kg/m3]
293.15 K | 1101.7 ± 0.5
303.15 K | 1095.6 ± 0.5
313.15 K | 1089.6 ± 0.5
323.15 K | 1083.7 ± 0.5
333.15 K | 1077.7 ± 0.5
343.15 K | 1071.8 ± 0.5
353.15 K | 1065.9 ± 0.5
363.15 K | 1060 ± 0.5
373.15 K | 1054.2 ± 0.5

C[S+](C)[O-] [dimethyl sulfoxide] + O
[1], x1 = 0.998
Details | mass density [kg/m3]
293.15 K | 1100.2 ± 1.1
303.15 K | 1090.2 ± 1.1
313.15 K | 1080.4 ± 1
323.15 K | 1070.2 ± 1
333.15 K | 1060.3 ± 1
343.15 K | 1050.2 ± 1
353.15 K | 1040.2 ± 1
363.15 K | 1029.9 ± 1
373.15 K | 1019.8 ± 0.9

C[S+](C)[O-] [dimethyl sulfoxide]
[2]
Details | mass density [kg/m3]
293.15 K | 1100.2 ± 1.1
303.15 K | 1090.2 ± 1.1
313.15 K | 1080.4 ± 1
323.15 K | 1070.2 ± 1
333.15 K | 1060.3 ± 1
343.15 K | 1050.2 ± 1
353.15 K | 1040.2 ± 1
363.15 K | 1029.9 ± 1
373.15 K | 1019.8 ± 0.9

C[S+](C)[O-] [dimethyl sulfoxide] + CC(=O)[O-].CCn1cc[n+](C)c1
[1], x1 = 1
Details | mass density [kg/m3]
293.15 K | 1100.2 ± 0.5
303.15 K | 1090.2 ± 0.5
313.15 K | 1080.4 ± 0.5
323.15 K | 1070.2 ± 0.5
333.15 K | 1060.3 ± 0.5
343.15 K | 1050.2 ± 0.5
353.15 K | 1040.2 ± 0.5
363.15 K | 1029.9 ± 0.5
373.15 K | 1019.8 ± 0.5
